Holding throughout (type): biochemical
One test concerns the target Jak2 (a.a. 828-1132) (Homo sapiens (Human), UniProt O60674). The test can be described thus: In vitro JAK kinase assay (HTRF, phosphorylation of a biotinylated peptide), JAK2. Conditions: measured at 1 mM ATP. The method, boiled down:
(§1)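 N-terminally His-tagged catalytic domains, baculovirus-expressed in insect cells and purified, were used as enzyme. Reactions ran 1 hr at room temperature and were stopped with a mix of 45 mM EDTA, 300 nM SA-APC and 6 nM Eu-Py20. The HTRF signal was read after 40 min of antibody binding.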
A general note: In TR-FRET formats the signal depends on donor and acceptor labels being close together.

For test [1], the target named is human JAK1 (a.a. 837-1142). The test can be described thus: In vitro JAK kinase assay (HTRF, phosphorylation of a biotinylated peptide), JAK1. Conditions: ratio of JAK2 IC50 to JAK1 IC50, measured at 1 mM ATP. The method, boiled down:
as §1

Test [2] addresses human JAK1 (a.a. 837-1142) (Homo sapiens, UniProt P23458). The test is described as above. Conditions: measured at 1 mM ATP. The method in brief: as §1

SMILES strings stand for the structures. Where only a bound is given, the exact number is not on record here.

Sequence of Jak2 (a.a. 828-1132) (O60674 828-1132): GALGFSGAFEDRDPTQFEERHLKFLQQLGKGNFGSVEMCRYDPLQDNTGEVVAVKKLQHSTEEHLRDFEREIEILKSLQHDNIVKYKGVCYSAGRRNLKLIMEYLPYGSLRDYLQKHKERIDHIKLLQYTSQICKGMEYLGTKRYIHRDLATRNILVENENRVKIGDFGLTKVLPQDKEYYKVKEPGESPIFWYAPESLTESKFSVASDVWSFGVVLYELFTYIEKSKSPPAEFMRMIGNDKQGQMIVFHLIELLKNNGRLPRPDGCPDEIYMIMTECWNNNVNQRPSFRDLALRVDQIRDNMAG

Turning to `N#CCC1(n2ccc(-c3ncnc4[nH]ccc34)c2)CN(C2CCN(C(=O)Nc3ccc(Cl)cc3C#N)CC2)C1` [Example 293, 4-{3-(cyanomethyl)-3-[3-(7H-pyrrolo[2,3-d]pyrimidin-4-yl)-1H-pyrrol-1-yl]azetidin-1-yl}-N-(4-chloro-2-cyanophenyl)piperidine-1-carboxamide], the IC50 at Jak2 (a.a. 828-1132) is 10 to 50 nM; in test [2], at most 5 nM. In addition, the “IC50 Ratio JAK2/JAK1” value in test [1] was 3.4.

On to `N#CCC1(n2cc(-c3ccnc4[nH]ccc34)cn2)CN(C2CCN(C(=O)c3ccc(C#N)cc3F)CC2)C1` [Example 295, 4-[(4-{3-(cyanomethyl)-3-[4-(1H-pyrrolo[2,3-b]pyridin-4-yl)-1H-pyrazol-1-yl]azetidin-1-yl}piperidin-1-yl)carbonyl]-3-fluorobenzonitrile], for which the IC50 against Jak2 (a.a. 828-1132) is 10 to 50 nM; in test [2] it was 5 to 20 nM. In test [1], the “IC50 Ratio JAK2/JAK1” value is on record as 5.1.

As for `N#CCC1(n2cc(-c3ccnc4[nH]ccc34)cn2)CN(C2CCN(C(=O)c3ccc(O)c(F)c3)CC2)C1` [Example 296, {1-[1-(3-fluoro-4-hydroxybenzoyl)piperidin-4-yl]-3-[4-(1H-pyrrolo[2,3-b]pyridin-4-yl)-1H-pyrazol-1-yl]azetidin-3-yl}acetonitrile], the IC50 against Jak2 (a.a. 828-1132) is 10 to 50 nM; in test [2], at most 5 nM. Moreover, in test [1], the “IC50 Ratio JAK2/JAK1” value is recorded as 4.6.

Consider `N#CCC1(n2cc(-c3ccnc4[nH]ccc34)cn2)CN(C2CCN(C(=O)c3ccc(O)cc3F)CC2)C1` [Example 297, {1-[1-(2-fluoro-4-hydroxybenzoyl)piperidin-4-yl]-3-[4-(1H-pyrrolo[2,3-b]pyridin-4-yl)-1H-pyrazol-1-yl]azetidin-3-yl}acetonitrile], for which the results for the IC50 (at Jak2 (a.a. 828-1132); in test [2]) were at most 10 nM and at most 5 nM, respectively. In test [1], the “IC50 Ratio JAK2/JAK1” value was 10.0.

As for `N#CCC1(n2cc(-c3ccnc4[nH]ccc34)cn2)CN(C2CCN(C(=O)c3cc(C(F)(F)F)ncc3Cl)CC2)C1` [Example 298, {1-{1-[5-chloro-2-(trifluoromethyl)isonicotinoyl]piperidin-4-yl}-3-[4-(1H-pyrrolo[2,3-b]pyridin-4-yl)-1H-pyrazol-1-yl]azetidin-3-yl}acetonitrile], the IC50 against Jak2 (a.a. 828-1132) lay within 50 to 100 nM; in test [2], 20 to 30 nM. Besides, the “IC50 Ratio JAK2/JAK1” value in test [1] is 2.8.

For the compound `N#CCC1(n2cc(-c3ccnc4[nH]ccc34)cn2)CN(C2CCN(C(=O)c3ccnc(C(F)(F)F)n3)CC2)C1` [Example 299, [3-[4-(1H-pyrrolo[2,3-b]pyridin-4-yl)-1H-pyrazol-1-yl]-1-(1-{[2-(trifluoromethyl)pyrimidin-4-yl]carbonyl}piperidin-4-yl)azetidin-3-yl]acetonitrile], the IC50 at Jak2 (a.a. 828-1132) was above 100 nM; in test [2], 20 to 30 nM. In test [1], the “IC50 Ratio JAK2/JAK1” value was determined as 6.6.

As to `N#CCC1(n2cc(-c3ccnc4[nH]ccc34)cn2)CN(C2CCN(C(=O)c3cncc(C(F)(F)F)n3)CC2)C1` [Example 300, [3-[4-(1H-pyrrolo[2,3-b]pyridin-4-yl)-1H-pyrazol-1-yl]-1-(1-{[6-(trifluoromethyl)pyrazin-2-yl]carbonyl}piperidin-4-yl)azetidin-3-yl]acetonitrile], the figures for the IC50 (against Jak2 (a.a. 828-1132); in test [2]) were above 100 nM and 5 to 20 nM, respectively. Moreover, in test [1], the “IC50 Ratio JAK2/JAK1” value was 11.7.

Turning to `N#CCC1(n2cc(-c3ccnc4[nH]ccc34)cn2)CN(C2CCN(C(=O)c3cnc(C(F)(F)F)cn3)CC2)C1` [Example 301, [3-[4-(1H-pyrrolo[2,3-b]pyridin-4-yl)-1H-pyrazol-1-yl]-1-(1-{[5-(trifluoromethyl)pyrazin-2-yl]carbonyl}piperidin-4-yl)azetidin-3-yl]acetonitrile], the IC50 on Jak2 (a.a. 828-1132) was in the range of 50 to 100 nM; in test [2] it was 20 to 30 nM. Further, the “IC50 Ratio JAK2/JAK1” value in test [1] is 3.3.

Consider `N#CCC1(n2cc(-c3ccnc4[nH]ccc34)cn2)CN(C2CCN(C(=O)C3CCC(F)(F)CC3)CC2)C1` [Example 302, {1-{1-[(4,4-fluorocyclohexyl)carbonyl]piperidin-4-yl}-3-[4-(1H-pyrrolo[2,3-b]pyridin-4-yl)-1H-pyrazol-1-yl]azetidin-3-yl}acetonitrile], for which the IC50 was above 100 nM on Jak2 (a.a. 828-1132) and 20 to 30 nM in test [2]. The “IC50 Ratio JAK2/JAK1” value in test [1] is 6.5.

With `N#CCC1(n2cc(-c3ccnc4[nH]ccc34)cn2)CN(C2CCN(C(=O)Nc3ccc(F)cc3C(F)(F)F)CC2)C1` [Example 303, 4-{3-(Cyanomethyl)-3-[4-(1H-pyrrolo[2,3-b]pyridin-4-yl)-1H-pyrazol-1-yl]azetidin-1-yl}-N-[4-fluoro-2-(trifluoromethyl)phenyl]piperidine-1-carboxamide], the IC50 at Jak2 (a.a. 828-1132) was 50 to 100 nM; in test [2] it was at most 5 nM. The “IC50 Ratio JAK2/JAK1” value in test [1] was 19.7.

For the compound `N#CCC1(n2cc(-c3ccnc4[nH]ccc34)cn2)CN(C2CCN(C(=O)Nc3ccc(F)cc3F)CC2)C1` [Example 304, 4-{3-(cyanomethyl)-3-{4-(1H-pyrrolo[2,3-b]pyridin-4-yl)-1H-pyrazol-1-yl]azetidin-1-yl}-N-(2,4-difluorophenyl)piperidine-1-carboxamide], the IC50 against Jak2 (a.a. 828-1132) was 10 to 50 nM; in test [2], at most 5 nM. Also, the “IC50 Ratio JAK2/JAK1” value in test [1] is listed as 10.3.

For `N#CCC1(n2cc(-c3ccnc4[nH]ccc34)cn2)CN(C2CCN(C(=O)Nc3ccc(F)cc3Cl)CC2)C1` [Example 305, N-(2-chloro-4-fluorophenyl)-4-{3-(cyanomethyl)-3-[4-(1H-pyrrolo[2,3-b]pyridin-4-yl)-1H-pyrazol-1-yl]azetidin-1-yl}piperidine-1-carboxamide], the IC50 against Jak2 (a.a. 828-1132) was 50 to 100 nM; in test [2], at most 5 nM. Moreover, the “IC50 Ratio JAK2/JAK1” value in test [1] is 16.0.

For the compound `COc1ncccc1NC(=O)N1CCC(N2CC(CC#N)(n3cc(-c4ccnc5[nH]ccc45)cn3)C2)CC1` [Example 306, 4-{3-(cyanomethyl)-3-[4-(1H-pyrrolo[2,3-b]pyridin-4-yl)-1H-pyrazol-1-yl]azetidin-1-yl}-N-(2-methoxypyridin-3-yl)piperidine-1-carboxamide], the IC50 against Jak2 (a.a. 828-1132) was in the range of 10 to 50 nM; in test [2], 5 to 20 nM. Besides, in test [1], the “IC50 Ratio JAK2/JAK1” value amounted to 3.5.

In the case of `N#CCC1(n2cc(-c3ccnc4[nH]ccc34)cn2)CN(C2CCN(C(=O)Nc3ccncc3C(F)(F)F)CC2)C1` [Example 307, 4-{3-(cyanomethyl)-3-[4-(1H-pyrrolo[2,3-b]pyridin-4-yl)-1H-pyrazol-1-yl]azetidin-1-yl}-N-[3-(trifluoromethyl)pyridin-4-yl]piperidine-1-carboxamide], the IC50 was in the range of 50 to 100 nM against Jak2 (a.a. 828-1132) and 5 to 20 nM in test [2]. In addition, in test [1], the “IC50 Ratio JAK2/JAK1” value is on record as 8.8.

In the case of `N#CCC1(n2cc(-c3ccnc4[nH]ccc34)cn2)CN(C2CCN(C(=O)Nc3cnccc3C(F)(F)F)CC2)C1` [Example 308, 4-{3-(cyanomethyl)-3-[4-(1H-pyrrolo[2,3-b]pyridin-4-yl)-1H-pyrazol-1-yl]azetidin-1-yl}-N-[4-(trifluoromethyl)pyridin-3-yl]piperidine-1-carboxamide], the IC50 is 50 to 100 nM against Jak2 (a.a. 828-1132) and at most 5 nM in test [2]. The “IC50 Ratio JAK2/JAK1” value in test [1] was determined as 10.4.

For `N#CCC1(n2cc(-c3ccnc4[nH]ccc34)cn2)CN(C2CCN(C(=O)Nc3ccccc3F)CC2)C1` [Example 309, 4-{3-(cyanomethyl)-3-[4-(1H-pyrrolo[2,3-b]pyridin-4-yl)-1H-pyrazol-1-yl]azetidin-1-yl}-N-(2-fluorophenyl)piperidine-1-carboxamide], the IC50 on Jak2 (a.a. 828-1132) lay in the range of 10 to 50 nM; in test [2], 5 to 20 nM. For the same compound, the “IC50 Ratio JAK2/JAK1” value in test [1] was determined as 5.3.

With `N#CCC1(n2cc(-c3ccnc4[nH]ccc34)cn2)CN(C2CCN(C(=O)Nc3ccccc3Cl)CC2)C1` [Example 310, N-(2-chlorophenyl)-4-{3-(cyanomethyl)-3-[4-(1H-pyrrolo[2,3-b]pyridin-4-yl)-1H-pyrazol-1-yl]azetidin-1-yl}piperidine-1-carboxamide], the results for the IC50 (on Jak2 (a.a. 828-1132); in test [2]) were 10 to 50 nM and at most 5 nM, respectively. In addition, in test [1], the “IC50 Ratio JAK2/JAK1” value was determined as 9.0.

For `N#CCC1(n2cc(-c3ccnc4[nH]ccc34)cn2)CN(C2CCN(C(=O)Nc3ccc(C#N)cc3C(F)(F)F)CC2)C1` [Example 311, 4-{3-(cyanomethyl)-3-[4-(1H-pyrrolo[2,3-b]pyridin-4-yl)-1H-pyrazol-1-yl]azetidin-1-yl}-N-[4-cyano-2-(trifluoromethyl)phenyl]piperidine-1-carboxamide], the IC50 was above 100 nM against Jak2 (a.a. 828-1132) and 5 to 20 nM in test [2]. In addition, the “IC50 Ratio JAK2/JAK1” value in test [1] is on record as 11.1.

With `N#CCC1(n2cc(-c3ccnc4[nH]ccc34)cn2)CN(C2CCN(C(=O)Nc3ccc(C#N)cc3F)CC2)C1` [Example 312, N-(4-cyano-2-fluorophenyl)-4-{3-(cyanomethyl)-3-[4-(1H-pyrrolo[2,3-b]pyridin-4-yl)-1H-pyrazol-1-yl]azetidin-1-yl}piperidine-1-carboxamide], the values for the IC50 (against Jak2 (a.a. 828-1132); in test [2]) were 50 to 100 nM and 5 to 20 nM, respectively. Further, in test [1], the “IC50 Ratio JAK2/JAK1” value is recorded as 5.3.

Regarding `N#CCC1(n2cc(-c3ccnc4[nH]ccc34)cn2)CN(C2CCN(C(=O)Nc3ccc(C#N)cc3Cl)CC2)C1` [Example 313, N-(2-chloro-4-cyanophenyl)-4-{3-(cyanomethyl)-3-[4-(1H-pyrrolo[2,3-b]pyridin-4-yl)-1H-pyrazol-1-yl]azetidin-1-yl}piperidine-1-carboxamide], the results for the IC50 (at Jak2 (a.a. 828-1132); in test [2]) were 10 to 50 nM and at most 5 nM, respectively. In test [1], the “IC50 Ratio JAK2/JAK1” value worked out at 14.3.

Take `N#CCC1(n2cc(-c3c(F)cnc4[nH]ccc34)cn2)CN(C2CCN(C(=O)c3ccnc(C(F)(F)F)c3F)CC2)C1` [Example 314, (3-[4-(5-Fluoro-1H-pyrrolo[2,3-b]pyridin-4-yl)-1H-pyrazol-1-yl]-1-{1-[3-fluoro-2-(trifluoromethyl)isonicotinoyl]piperidin-4-yl}azetidin-3-yl)acetonitrile]: the figures for the IC50 (against Jak2 (a.a. 828-1132); in test [2]) were 10 to 50 nM and at most 5 nM, respectively. Moreover, the “IC50 Ratio JAK2/JAK1” value in test [1] came to 11.0.

One may read the IC50 as the midpoint of a concentration-inhibition curve. High values mean lower potency, low ones higher potency.

The values are drawn from patent US9999619B2, “Piperidin-4-yl azetidine derivatives as JAK1 inhibitors” (Incyte Corporation, priority 2010, dated 2018).
